The source of these data is patent US20260102413A1, “TREATING PAIN ASSOCIATED WITH CENTRAL SENSITIZATION” (Medicon Pharmaceuticals, Inc., priority 2022, published 2026).

Read-outs that look alike come from different tables or passages of the source.

The nature of data set [1]: in vivo. As to conditions: rat. The method, then:
Approximately 800 μL of blood were collected through cardiac puncture and immediately centrifuged.
Tissue samples were harvested using separate dissection instruments for each tissue sample to avoid cross contamination, and snap frozen. The levels of the test drug were determined by HPLC.
As previously described (Wen et al, 2019), each plasma sample was mixed with double volume of acetonitrile and centrifuged at 13,200 rpm for 15 min. Tissue samples were weighed, ddH2O (100-300 μL, depending on tissue weight) was added, and they were homogenized. Following addition of acetonitrile (twice the volume of the homogenate), the mixture was sonicated for 10 min, centrifuged at 13,200 rpm for 15 min, and analyzed by HPLC, as reported (Wen et al, 2019).
It was performed following a previously reported method (Xie et al, 2012). Briefly, the HPLC system consisted of a Waters Alliance 2695 Separations Module (Milford, MA, USA) equipped with a Waters 2998 photodiode array detector (328 nm) and a Thermo Hypersil BDS C18 column (150×4.6 mm, particle size 3 μm). The mobile phase consisted of a gradient between solvent A (formic acid, CH3CN, H2O (0.1:4.9:95 v/v/v)) and solvent B (CH3CN) at a flow rate of 1 mL·min−1 at 30° C. We applied gradient elution from 30 to 100% solvent B from 0-6 min, and it was maintained at 100% solvent B until 8 min.
The methods are identical to those used in Example 27.
A single dose of PN or PSA was given by oral gavage to groups of three Sprague-Dawley rats, which were euthanized and dissected according to the early example. The oral gavage solution of phosphonaproxen was prepared by dissolving in 10% DMSO and then suspending it in corn oil.

Data set [2] concerns BALB/c mice infected with HSV-1 KOS strain (PHN). Format: in vivo, mouse. As to conditions: mouse, in vivo. How it is done:
PHN was induced in mice by infecting them with the HSV-1 KOS strain virus and following established protocols (Ou et al, Front Immunol, 14, 1026269, 2023; Takasaki et al, Anesthesiology, 96 (5), 1168-74, 2002).
; Reckitt Benckiser). Three days later, HSV-1 (10^6 PFUs in 20 μl PBS) was inoculated on the shin of the right hind paw (5×5 mm) after scarification with sandpaper. The virus was applied directly to the scarified area. The contralateral hind paw was without inoculation. Mock infection was performed using the same virus inactivated by heating at 60° C. for 1 h.
In a second experiment, the effect of the parent compound, sulindac, was tested in the same mouse model. Five days post-inoculation, sulindac (as a 5% gel), or vehicle control were administered topically onto both hind paws of mice three times a day for three days.
PHN was induced in mice by infecting them with the HSV-1 KOS strain virus in line with the previous Examples.
Five days post-inoculation, NO-sulindac (Formula XLIV) (as a 5% gel), or vehicle control were administered topically onto both hind paws of mice three times a day for three days.

Data set [3] is classed as in vivo, mouse. The conditions noted are these: mouse, in vivo. How it is done: At 0.5, 1, 3, 5, 12, 18, and 24 h, mice (n=4-5 mice/time point) were euthanized with CO2 inhalation. Blood was drawn immediately after death. Tissues, including paw skin, paw muscle, leg muscle, the sciatic nerve and lumbar DRG bilaterally were dissected quickly, immediately frozen in liquid nitrogen and stored at −80° C. until analyzed.

The test system of data set [4] is mice with paclitaxel-induced central sensitization. The data set is described as follows: cold allodynia (acetone test), paclitaxel-induced central sensitization. As to conditions: mouse, in vivo. The method, then: To determine the outcome of treatment, assessment of mechanical allodynia was performed. […] Both methods of assessing allodynia are described in Toma W, et al. Neuropharmacology 2017; 117:305-15. Mechanical and cold allodynia are determined at least one day apart in the same animal.
The acetone test was used. Briefly, acetone was applied onto the plantar surface of each hind paw. The time each mouse spent licking, lifting, and/or shaking the hind paw recorded over 60 seconds was the score for cold allodynia.

For data set [5], the system named is STZ-diabetic rats. The format is in vivo, rat. The conditions noted are these: rat, in vivo. From the text: The animal model corresponds to that used for Example 4, but using a prevention protocol. As in Example 4, the outcome measure, determining the effect of the treatment on the prevention of mechanical allodynia, was the PWT test, using von Frey filaments. The measurements were taken at day −3, before treatment or induction of neuropathic pain associated with DPN, and again at the end of the study period (day 28).
The rats were randomised into treatment groups as follows, all having an average body weight of about 225 g. • 1. Group 1: naïve rats (n=6) • 2. Group 2: STZ only (n=8) • 3. Group 3: STZ plus vehicle (n=8) • 4. […] Group 5: STZ plus sulindac 0.7% (n=8) • 6. Group 6: STZ plus lidocaine cream 5% (n=8)
Each treatment group was subjected to a PWT assessment at day −3 in order to determine the baseline of mechanical allodynia.
For those rats in the lidocaine treatment group, lidocaine cream was applied only once to both hind paws of the rats 30 min before the final PWT measurement on day 28. On day 0, neuropathic pain associated with DPN was induced with the administration of STZ, and the blood glucose was checked on day 3.

The test system of data set [6] is mice with oxaliplatin-induced neuropathic pain. The data set is described as follows: von Frey mechanical allodynia, oxaliplatin-induced pain, topical PS. As to conditions: mouse, in vivo. From the text:
(§1) Paw withdrawn, licking or shaking were considered positive responses.

The subject of data set [7] is mice with vincristine-induced neuropathic pain. Kind of data set: von Frey mechanical allodynia, vincristine-induced pain, topical PS. As to conditions: mouse, in vivo.
From the text: as §1

A short description of data set [8]: drug levels in proximal and distal half of the sciatic nerve after topical PS. Format: in vivo, mouse. As to conditions: mouse, in vivo. The method, then:
In a separate experiment we studied 8 mice with paclitaxel-induced PN treated with PS 8% ointment 3×/d for 2 wks. Mice were euthanized as above 30 minutes after the last dose of PS. From these mice we harvested both sciatic nerves dividing each into proximal and distal halves, and combined the corresponding halves of every two animals for assay of drug levels.

Data set [9] concerns mice with NTG-induced chronic migraine. Kind of data set: von Frey PWT, NTG-induced chronic migraine model. Format: in vivo, mouse. The conditions noted are these: mouse, in vivo. From the text:
The NTG-induced chronic migraine model was used as described previously.

Data set [10] has as its system mice given paclitaxel (CIPN prevention). The data set is described as follows: von Frey PWT, prevention of paclitaxel-induced CIPN pain, topical PS. The conditions noted are these: mouse, in vivo. The method, then:
In order to establish CIPN, paclitaxel is administered at 10 mg/kg intraperitoneally into C57/BL mice. […] This dosing regimen of paclitaxel produces pain associated with CIPN with time courses that are similar to those of pain after paclitaxel administration in cancer patients.
The first doses were administered 2 days prior to the first administration of paclitaxel.

Data set [11] relates to chronic pain after LASIK. The data set is described as follows: PS to outer surface of eyelid in a subject after kerato-refractive surgery (LASIK). As to conditions: in vivo.
Data set [12] concerns the target COX-2 (Homo sapiens, UniProt P35354). As to conditions: cited from earlier work.
The target in data set [13] is COX-1 (Homo sapiens, UniProt P23219). As to conditions: cited from earlier work.
Sequence of COX-1 (P23219 24-599): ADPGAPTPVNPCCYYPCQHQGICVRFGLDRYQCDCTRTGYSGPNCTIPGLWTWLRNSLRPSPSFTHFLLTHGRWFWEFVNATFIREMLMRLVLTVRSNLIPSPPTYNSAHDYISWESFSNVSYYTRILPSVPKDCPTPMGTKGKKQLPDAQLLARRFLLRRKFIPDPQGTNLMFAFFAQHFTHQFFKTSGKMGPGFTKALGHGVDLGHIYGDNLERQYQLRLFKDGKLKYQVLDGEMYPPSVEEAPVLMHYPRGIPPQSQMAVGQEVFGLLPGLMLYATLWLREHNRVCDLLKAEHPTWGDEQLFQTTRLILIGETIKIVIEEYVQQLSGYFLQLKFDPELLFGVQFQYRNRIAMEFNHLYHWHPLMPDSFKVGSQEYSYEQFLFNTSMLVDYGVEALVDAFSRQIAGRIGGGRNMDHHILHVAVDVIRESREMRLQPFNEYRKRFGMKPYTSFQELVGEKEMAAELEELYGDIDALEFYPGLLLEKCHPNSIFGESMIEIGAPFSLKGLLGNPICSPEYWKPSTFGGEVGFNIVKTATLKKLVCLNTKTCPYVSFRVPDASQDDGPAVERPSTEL
Data set [14] has as its system corneal neuropathic pain. Kind of data set: preliminary in vivo evidence, PS to the ocular surface, corneal neuropathic pain.
Data set [15] relates to mice. The conditions noted are these: mouse, in vivo.
Data set [16] has as its system mice with chronic constriction injury of the left sciatic nerve (PTPN). The data set is described as follows: von Frey PWT, chronic constriction injury (CCI) model of PTPN, topical compounds. Format: in vivo, mouse. As to conditions: Q922, PSA 5% on left hind paw 3x/day 6 days.

Sequence of COX-2 (P35354 18-604): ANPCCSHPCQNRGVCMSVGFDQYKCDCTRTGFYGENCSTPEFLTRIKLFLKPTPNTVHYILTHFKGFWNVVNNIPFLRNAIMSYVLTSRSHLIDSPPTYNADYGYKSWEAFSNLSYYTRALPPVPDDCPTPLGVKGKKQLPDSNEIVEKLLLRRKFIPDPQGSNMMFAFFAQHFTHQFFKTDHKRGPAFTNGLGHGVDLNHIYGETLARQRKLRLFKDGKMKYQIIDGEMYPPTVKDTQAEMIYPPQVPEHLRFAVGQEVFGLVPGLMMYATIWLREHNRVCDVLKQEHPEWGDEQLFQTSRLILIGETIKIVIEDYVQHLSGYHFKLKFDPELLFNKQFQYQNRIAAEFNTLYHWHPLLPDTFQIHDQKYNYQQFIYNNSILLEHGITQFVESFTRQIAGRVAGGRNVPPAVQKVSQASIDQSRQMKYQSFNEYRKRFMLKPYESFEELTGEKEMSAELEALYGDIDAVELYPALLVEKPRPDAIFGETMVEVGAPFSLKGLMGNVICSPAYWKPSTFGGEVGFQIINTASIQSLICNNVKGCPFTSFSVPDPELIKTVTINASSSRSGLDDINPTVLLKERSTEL

Consider `CCOP(=O)(OCC)OCCCCOC(=O)CC1=C(C)/C(=C/c2ccc([S+](C)[O-])cc2)c2ccc(F)cc21` (stereo not shown) [PS, phosphosulindac], for which, in data set [1], the “detection in the systemic circulation” value was “No PS was detected”. This compound returned a T1/2 in data set [1] (po, 250 mg/kg) of 3.3 h. In data set [2], the “PWT, g Mean ± SEM, Post-inoculation, day 5” value was found to be 0.53 ± 0.06 g; the “PWT, g Mean ± SEM, Post-treatment” value was 0.93 ± 0.06 g; the “PWT, g Mean ± SEM, Pre-inoculation” value was 1.27 ± 0.19 g. The “detection in the systemic circulation” value in [3] is on record as “no PS was detected”. Further, the “cold allodynia score (acetone test, time licking/lifting/shaking over 60 s)” value in data set [4] is 3.1±0.4. Moreover, in data set [5], the “von Frey, gm mean ± SEM” value was found to be 33.1 ± 1.6 gm. The “mechanical allodynia score (von Frey) after PS treatment” value in data set [6] was determined as 1.8 ± 0.09 g. The “mechanical allodynia score (von Frey)” value in data set [7] was 1.5 ± 0.09 g. Also, in data set [8], the “concentration in distal half of the sciatic nerve, mean ± SEM” value was found to be 17.0 ± 5.1 µM and the “concentration in proximal half of the sciatic nerve, mean ± SEM” value stood at 0.9 ± 0.3 µM. In addition, in data set [9], the “PWT, g Mean ± SEM, Baseline” value was found to be 2.28 ± 0.34 g and the “PWT, g Mean ± SEM, Day 11” value is 1.18 ± 0.10 g. For the same compound, in [10], the “PWT, gm Mean ± SEM” value is on record as 0.4 ± 0.01 gm and the “mechanical allodynia score (von Frey)” value was 1.2 ± 0.15 g. Moreover, the “effect on chronic pain after LASIK” value in data set [11] is on record as “dramatically reduced chronic pain”. Also, the “inhibition of COX-2” value in [12] was “does not inhibit”. Further, the “inhibition of COX-1” value in data set [13] was “does not inhibit”. Further, in [14], the “analgesic effect on corneal neuropathic pain” value is “striking analgesic effect”. The “topical or systemic side effects” value in data set [15] is “no topical or systemic side effects”.

As for `CCOP(=O)(NCCCCNC(=O)c1ccccc1SC/C=C(\C)CC/C=C(\C)CCC=C(C)C)OCC` [Q922], the “PWT, g Mean ± SEM” value in data set [16] turned out to be 1.48 ± 0.36 g.
